{
  "source": "patent US20230144459A1",
  "about": "“SHEDDING BLOCKING AGENTS WITH INCREASED STABILITY” (BIOND BIOLOGICS LTD., priority 2020, published 2023)",
  "target": "T1, human CD28 (shedding of sCD28 from cells) (Homo sapiens, UniProt P10747)",
  "T1 construct": "endogenous in cells; host or cells: CD4 T cells and PBMCs from fresh blood of healthy donors",
  "T1 sequence (P10747 19-220)": "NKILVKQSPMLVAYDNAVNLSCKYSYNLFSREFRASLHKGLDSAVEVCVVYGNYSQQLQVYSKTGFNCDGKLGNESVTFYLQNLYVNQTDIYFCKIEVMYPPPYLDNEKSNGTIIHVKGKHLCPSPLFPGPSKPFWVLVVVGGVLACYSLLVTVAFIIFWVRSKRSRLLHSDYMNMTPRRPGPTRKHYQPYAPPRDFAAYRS",
  "assay": "Inhibition of CD28 shedding in stimulated lymphocytes (CD4 with PHA and IL-2 or PBMCs with SEB)",
  "assay_type": "cell-based",
  "settings": "percent of soluble CD28 reduction from basal stimulation; constructs and isotype 3 μM, MMPi TMI-1 1 μM",
  "data": [
    {"smiles": "CC#CCOc1ccc(S(=O)(=O)N2CCSC(C)(C)[C@@H]2C(=O)NO)cc1", "note": "[MMPi, TMI-1, reference compound]", "values": [
      {"measurement": "Inhibition (%) of CD28 shedding", "result": 60.5, "unit": "%"}
    ]}
  ]
}
